Data taken from EPA's ToxValDB 9.5 (doi:10.2903/j.efsa.2006.87r).
Converted amounts (≈) assume the structure as drawn.

Tests used:
[1] = test system: Bird; details: for LD50: acute, oral, unspecified, mortality
[2] = test system: Lepomis macrochirus; details: acute; duration: 96 hours; mortality
[3] = test system: Daphnia magna; details: chronic/long-term; duration: 21 days; reproduction
[4] = test system: Oncorhynchus mykiss; details: chronic/long-term; duration: 28 days; growth
[5] = test system: Bibionidae; details: chronic/long-term; duration: 28 days
[6] = test system: Tagia sp.
[7] = test system: Oryctolagus sp.; details: reproduction developmental; mortality
[8] = test system: Rattus norvegicus
[9] = test system: Canidae; details: chronic; duration: 1 years; oral; Dog Other
[10] = test system: Apis mellifera; details: acute; duration: 48 hours; oral; unspecified; mortality
[11] = test system: Aphidius rhopalosiphi; details: not reported

Row | Compound | LD50 [1] | LC50 [2] [mg/L] | NOEC [3] [mg/L] | NOEC [4] [mg/L] | NOEC [5] [mg/L] | LC50 (acute, oral, diet, mortality) [mg/kg-day] | NOAEL (chronic/long-term) [mg/kg-day] | NOEC ([1]; reproductive) [mg/kg-day] | LC50 ([6]; acute, duration: 14 days, mortality) [mg/kg] | NOEC ([6]; chronic/long-term, reproduction) [g/ha] | NOAEL [7] [mg/kg-day] | LD50 ([8]; acute, oral, mortality) [mg/kg] | NOAEL ([8]; chronic, duration: 2 years, organ weight) [mg/kg-day] | NOAEL ([8]; reproduction developmental, body weight) [mg/kg-day] | NOAEL [9] [mg/kg-day] | LD50 [10] [µg/piece] | LEL ([11]; mortality) [g/ha] | LEL ([11]; reproduction) [g/ha]
1 | COC(=O)[C@@H](C)Oc1ccc(Oc2ncc(C(F)(F)F)cc2Cl)cc1 [Haloxyfop-P-methyl] | 1160 mg/kg-day | 0.0884 (≈ 0.235 µM) | 0.509 | 0.0052 | 2.5 |  |  |  |  |  |  |  |  |  |  |  |  | 
2 | C[C@@H](Oc1ccc(Oc2ncc(C(F)(F)F)cc2Cl)cc1)C(=O)O [Haloxyfop-P] | 414 mg/kg |  |  |  |  | > 1110 | 1 | 17.1 | 830 | 810 | 7.5 | ≥ 300 | 0.065 | 0.065 | 0.5 | > 100 | 108 | 5.7
